These results are taken from patent US20220331322A1, “COMPOUND FOR INHIBITING CELL DEATH” (Christian-Albrechts-Universität zu Kiel, priority 2019, published 2022).

Each structure is given as a SMILES string.

For assay [1], the system named is L929 cells. Briefly: TLR3-mediated cell death induced by poly (I:C) + zVAD. It is filed as cell-based, murine. Particulars: L929, 1 μg/ml poly (I:C) + 25 μM zVAD, 24 h; primidone 1 mM, Nec-1s 20 μM. An excerpt:
Cell death was induced by activation of the Toll-like receptor 3 (TLR3). TLR3 is mainly expressed on immune cells, where it senses pathogen-associated molecular patterns and initiates innate immune response. The TLR3 agonist poly (I:C) was developed to mimic pathogens infection and boost immune system activation. In experimental models, poly (I:C) is known to induce regulated cell death in cells expressing TLR3. To examine whether primidone also blocks TLR3-mediated cell death, murine L929 cells were stimulated for 24 h at 37° C. with vehicle (a), 1 μg/ml of the TLR3 ligand poly (I:C) alone (b) or in combination with 25 μM zVAD (c). In addition, cells were stimulated with 1 μg/ml poly (I:C), 25 μM zVAD and 20 μM Nec-1s (d) and with 1 μg/ml poly (I:C), 25 μM zVAD and 1 mM primidone (e).

The test system of assay [2] is NF-κB. The assay is described as follows: Western blot of NF-κB activation (p-NF-κB) after TZ stimulation. The format is cell-based, murine. The note with it: L929, 100 ng/ml TNF-α + 25 μM zVAD (TZ), 1 mM primidone. How it is done:
It was then analyzed whether primidone interferes with the canonical NF-κB signaling pathway which drives the expression of pro-survival molecules. The binding of TNF-α to its corresponding receptor (TNFR1) initially results in the activation of the NF-κB signaling pathway. In this early phase of TNF activation, the cells are protected from cell death by the presence of a membrane-bound complex known as complex I which is formed within seconds after engagement of TNFR1 by TNF-α. This complex induces the expression of pro-survival molecules via activation of the canonical NF-κB pathway. As the default response of most cells to TNF-α is survival and NF-κB-mediated upregulation of pro-survival genes, it was analyzed whether primidone functions in a survival-signaling mode and thus indirectly prevents cell death signaling. For this purpose, murine L929 cells were stimulated at 37° C. for different time periods (as indicated) with 100 ng/ml TNF-α+25 μM zVAD (TZ) in the absence (vehicle) or presence of 1 mM primidone. Subsequently, a Western blot analysis of the cell lysates using a specific p-NF-κB antibody was performed.
For orientation: A western blot detects proteins with antibodies after separation by electrophoresis.

Assay [3] has as its system TNF-α-induced complex I. The assay is described as follows: Immunoprecipitation of TNF-α-induced complex I after TSZ, RIPK1 western blot. Particulars: U937, TSZ (100 ng/ml Fc-TNF-α + 1 μM SM164 + 25 μM zVAD), 1 mM primidone. The format is cell-based, human. How it is done:
(§1) It was tested whether primidone interferes with binding of TNF-α to its corresponding receptor TNFR1. To induce cell death, human U937 cells were treated in the absence (vehicle) or presence of 1 mM primidone with 100 ng/ml Fc-tagged TNF-α+1 μM SMAC mimetic SM164+25 μM zVAD (TSZ) for different time periods, followed by immunopurification of the immunoprecipitated TNF-α-induced complex I using μMACS™ protein A/G microbeads, and western blot analysis using a specific RIPK1 antibody.

Assay [4] has as its system RIPK1. Briefly: RIPK1 phosphorylation (Ser166) western blot after TSZ. It is filed as cell-based, human. Particulars: U937, TSZ, 1 mM primidone. As to the method:
as §1
It was then analyzed if the previously immunoprecipitated RIPK1 is activated by phosphorylation. For this purpose, the Western Blot shown before (FIG. 5) was “stripped” by chemically removing all reagents from the blot and re-developed with an antibody that only detects RIPK1 in its activate (i.e. phosphorylated) form.

The test system of assay [5] is Jurkat cells. Briefly: Anti-Fas antibody induced RIPK1-independent apoptosis. The format is cell-based, human. The note with it: 5 ng/ml anti-Fas antibody, 5 h, zVAD 25 μM, primidone 1 mM. As to the method:
To this end, human T cells (Jurkat cells) were incubated for 5 h at 37° C. in the presence of (a) vehicle, (b) 5 ng/ml anti-Fas antibody, (c) 5 ng/ml anti-Fas antibody in combination with 25 μM of the pan-caspase inhibitor zVAD, and (d) 5 ng/ml anti-Fas antibody in combination with 1 mM primidone. The addition of the anti-Fas antibody induces apoptosis, a caspase-dependent form of regulated cell death that can be inhibited by the addition of the pan-caspase inhibitor zVAD.

Assay [6] deals with L929 cells. The assay is described as follows: Time profile of blocking TZ-induced necroptosis, FACS (7-AAD/Annexin V). The note with it: L929, 10 ng/ml TNF-α + 25 μM zVAD (TZ), 24 h; primidone 1 mM, Nec-1s 25 μM; one representative experiment of three. It is filed as cell-based, murine. As to the method:
The time profile of primidone for blocking cell death was compared to the one of Nec-1s. For this purpose, murine L929 cells were stimulated at 37° C. for 24 h with 10 ng/ml TNF-α+25 μM zVAD (TZ) in the presence of 1 mM primidone and 25 μM Nec-1s, respectively, for the indicated durations. Nec-1s and primidone were added 30 min before, 60 min and 180 min after the induction of RIPK1-mediated necroptosis, respectively. Cell death was quantified by FACS analysis using 7-amino-actinomycin D and phosphatidylserine accessibility (Annexin V staining) as markers.

Assay [7] can be described thus: TNF-α-induced SIRS mouse model. It is filed as in vivo. Particulars: C57BL/6 mice, 10 mg/kg i.p. 15 min before 1 mg/kg murine TNF-α i.v. As to the method:
Hypothermia and morbidity induced by a high dose of TNF-α is considered in the literature to be a model for systemic inflammatory response syndrome (SIRS) (Moerke C, et al. (2019); Newton K, et al. (2014); Duprez L, et al. (2011)). All mice (8 weeks old) used in this experiment were on C57BL/6 background and age-, sex-, and weight-matched. Recombinant carrier-free murine TNF-α was obtained from R&D Systems (Bio-Techne, Wiesbaden, Germany). Each mouse received a single bolus of 1 mg murine TNF-α/kg body weight in a total volume of […] phosphate-buffered saline, via the tail vein. In this setting, mice received 15 min before TNF-α application a single intraperitoneal (i.p.) injection (total volume per mouse was 200 μl) of either 2.5% DMSO in PBS (vehicle) or 10 mg primidone/kg body weight (as indicated). Thereafter, the animals (n=16 per group) were placed under permanent observation and survival was checked every 15 min. Survival is depicted in a Kaplan-Meier plot (*** p<0.001).

Consider `CCC1(c2ccccc2)C(=O)NCNC1=O` [primidone, 5-Ethyl-5-phenyl-1,3-diazinane-4,6-dione], for which the “Protection from RIPK1-mediated cell death induced by poly (I:C) and zVAD” value in assay [1] is given as “effectively protect cells”. In addition, the “Activation (phosphorylation) of NF-κB” value in assay [2] was “Activation (phosphorylation) of NF-κB was detected”. For the same molecule, in assay [3], the “TNF-α-induced formation of complex I (RIPK1 binding to TNFR1)” value was “not influenced”. For the same molecule, the “Activation (phosphorylation) of RIPK1 at residue Ser166” value in assay [4] is “completely blocked”. Besides, the “Inhibition of anti-Fas antibody induced cell death (caspase-dependent, RIPK1-independent)” value in assay [5] is “no inhibitory effect”. For the same molecule, in assay [6], the “Cells still alive, compound added 60 min after induction of cell death” value came out at 92.7% and the “Cells still alive, compound added 3 hours after induction of cell death” value came to 58.6%. In assay [7], the TNF-α-induced hypothermia result is reported as “significantly improves”. In addition, the “Survival after TNF-α injection” value in assay [7] (vs vehicle, p<0.001) was “significantly enhanced survival”.
